# What was measured:
# [1] = target: T1, catalase activity of SABP (Nicotiana tabacum, UniProt P49319); assay: Catalase activity of highly purified SABP (luminol method); assay type: biochemical, tobacco; settings: 0.05 h; 1 mM SA or analogue, 1 mM H2O2, 500 ng highly purified SABP
# T1 sequence (P49319 1-492): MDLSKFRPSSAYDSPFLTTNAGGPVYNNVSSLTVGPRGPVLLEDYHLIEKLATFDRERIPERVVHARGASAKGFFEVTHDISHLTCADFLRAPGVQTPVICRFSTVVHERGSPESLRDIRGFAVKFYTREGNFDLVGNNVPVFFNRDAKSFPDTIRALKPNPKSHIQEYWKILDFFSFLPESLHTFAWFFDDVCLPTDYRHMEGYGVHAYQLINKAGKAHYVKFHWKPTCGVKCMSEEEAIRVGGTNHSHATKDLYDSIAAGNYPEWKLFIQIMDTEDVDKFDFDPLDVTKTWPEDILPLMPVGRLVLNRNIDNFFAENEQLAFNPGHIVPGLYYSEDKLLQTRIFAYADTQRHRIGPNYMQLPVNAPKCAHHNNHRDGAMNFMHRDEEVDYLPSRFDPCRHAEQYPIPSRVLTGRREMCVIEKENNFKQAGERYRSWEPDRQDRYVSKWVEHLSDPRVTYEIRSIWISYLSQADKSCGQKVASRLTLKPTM
# Outline: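 H2O2 remaining was sampled every 30 s from purified SABP reactions, with or without SA or analogues. Measured by luminol chemiluminescence triggered by 0.5 mM K3Fe(CN)6 in 0.2N NH4OH, pH 9.5, and quantified against an H2O2 standard curve; first-order rate constants calculated.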
# guaiacol peroxidases = assay: Guaiacol peroxidase activity in tobacco leaf extracts; assay type: biochemical, Nicotiana tabacum cv. Xanthi nc
# Method: Inhibition of peroxidase by SA and INA was determined by measuring the enzyme activities in extracts prepared from tobacco leaves in the absence or presence of 100 μM or 1000 μM SA or INA. Two grams of leaves from 6-8 week old tobacco plants (Nicotiana tabacum cv. Xanthi nc) grown at 22° C. in a 14 hr light cycle were homogenized under liquid nitrogen using a pestle and mortar.
# Total guaiacol peroxidase activity was extracted with 100 mM potassium phosphate, pH 6.2, containing 1% (weight/volume) polyvinylpyrrolidone. In order to also extract the ionically bound cell wall isozymes, the extraction buffer was supplemented with 600 mM KCl. Extraction and centrifugation steps were as described for ascorbate peroxidase. After removal of cell debris and ammonium sulfate precipitation (85%), the extract was desalted against 50 mM potassium phosphate, pH 6, containing 25% glycerol. The extract could be stored at -20° C. without significant loss of peroxidase activity.
# Guaiacol peroxidase activity was determined by the method of Chance and Maehly (Methods Enzymol. 2: 764 (1955)) using guaiacol as the substrate.
# The formation of tetraguaiacol was monitored at 470 nm. The reaction mixture contained 0.25% guaiacol and 100 mM hydrogen peroxide in 20 mM potassium phosphate, pH 6.2. The amount of protein per 1 ml assay was […]. The reaction was measured for five minutes. The assay for horseradish peroxidase was identical, except that only 0.2-0.5 μg protein was used.
# [2] = tested on: resistance or PR gene expression; parameters: key: ++: indicates a high level of biological activity; +: indicates a lower level of biological activity; ±: indicates low, but detectable biological activity in some assays; -: indicates no biological activity; settings: Table 3; values reported in literature; cited from earlier work
# SABP = tested on: SABP; parameters: concentration or dose not given beside the values; settings: Table 6; previously published data (Chen et al. 1993); cited from earlier work
smiles,measurement,setting,value
"O=C(O)c1ccccc1O [salicylic acid, 2-hydroxybenzoic acid]",inhibition at 1000 µM,[1],80%
same,Activity,"guaiacol peroxidases; POX, 100 μM compound",2.7 ± 0.3 μmols of oxidized substrate mi
same,Inhibition,"guaiacol peroxidases; POX, 100 μM compound",3%
same,Activity,"guaiacol peroxidases; POX, 1,000 μM compound",2.7 ± 0.4 μmols of oxidized substrate mi
same,Inhibition,"guaiacol peroxidases; POX, 1,000 μM compound",3%
same,Biological activity,[2],++
same,Inhibition (%) [14C]SA binding,SABP,89%

# Source: US5989846A, “Assays to identify inducers of plant defense resistance” (Rutgers, The State University of New Jersey, priority 1995, dated 1999)
